Laboratory results: patent US9326508B2, “(S)-3′-methyl-abscisic acid and esters thereof” (Valent BioSciences Corporation, priority 2014, dated 2016)

Assays:
Arabidopsis thaliana = assay: Seed Germination Assay; type: in vivo; conditions: for time for 100% germination: Arabidopsis seed, 0.3 ppm test compound, 0.5% DMSO
Procedure: To determine the germination inhibition potency of the analogs, a germination assay was performed with the model plant Arabidopsis thaliana. Arabidopsis seed was sterilized by shaking for five minutes in 200 proof ethanol, followed by shaking for five minutes in a 10% bleach solution. The seeds were then washed five times in sterile, distilled, de-ionized water and suspended in 0.1% phytoagar. The tubes containing the seeds were wrapped in aluminum foil and stratified at 4° C. for at least two days. The analogs were tested in four-well plates. Each plate contained one well each of a 0.5% DMSO control, (S)-ABA, (S)-3′-methyl-ABA (Example 2) and (±)-3′-methyl-ABA (Example 4), all at a desired concentration. In a typical experiment, 18 microliters of a 100 ppm stock solution of each compound in 10% DMSO was pipetted into the designated well. Additional DMSO (28.2 microliters) and water (3.8 microliters) was added to each well, followed by the addition of 5.95 mL of ½×Murashige and Skoog media containing 1.2% Bactoagar to all the wells. This gave a total volume of 6.0 mL per well, 0.3 ppm of the test compound and final DMSO concentration of 0.5%. When the media solidified, one hundred sterile stratified Arabidopsis seeds were distributed into each well. The plates were sealed with surgical tape and placed in a growth chamber running diurnal cycles of 12 hours of light at 24° C. and 12 hours of darkness at 19° C. The plates were scanned daily at high resolution (600 dpi) until all seeds were germinated. A seed was scored as germinated once the radicle emerged. The percentage of seeds germinated each day is reported in the graph of FIG. 1. The tests at each concentration were repeated at least twice and the results were reproducible.

rice seedling = conditions: according to Ueno, et al.; cited from earlier work
(S)-ABA 8′-hydroxylase = conditions: according to Ueno, et al.; cited from earlier work

SMILES | potency at inhibiting Arabidopsis seed germination relative to (S)-ABA or (±)-3′-methyl-ABA (Arabidopsis thaliana; 0.3 ppm, FIG. 1) | time for 100% germination (Arabidopsis thaliana) | activity in rice seedling elongation assay relative to (S)-ABA (rice seedling) | activity in (S)-ABA 8′-hydroxylase inhibition assay relative to (S)-ABA ((S)-ABA 8′-hydroxylase)
CC1=C(C)[C@](O)(/C=C/C(C)=C\C(=O)O)C(C)(C)CC1=O [Example 2, (2Z,4E)-((S)-1-hydroxy-2,3,6,6-tetramethyl-4-oxocyclohex-2-en-1-yl)-3-methylpenta-2,4-dienoic acid] | more potent | 15 days |  | 
CC1=C(C)C(O)(/C=C/C(C)=C\C(=O)O)C(C)(C)CC1=O (racemic) [Example 4, (±)-(2Z,4E)-5-(1-hydroxy-2,3,6,6-tetramethyl-4-oxocyclohex-2-en-1-yl)-3-methylpenta-2,4-dienoic acid] |  | 8 days | equal activity to (S)-ABA | weaker activity than (S)-ABA
CC1=CC(=O)CC(C)(C)[C@@]1(O)/C=C/C(C)=C/C(=O)O [(S)-ABA, (S)-abscisic acid] |  | 6 days |  | 
